Experimental data: patent publication US20250136619A1, “HETEROBIFUNCTIONAL COMPOUNDS AND THEIR USE IN TREATING DISEASE” (HALDA THERAPEUTICS OPCO, INC., priority 2021, published 2025)

Legend:
BRD4-BD2 = BRD4-BD2 (Homo sapiens (Human), UniProt O60885); test: bromoKdELECT assay for binding affinity to BRD4-BD2
Experimental: (§1) Compounds were tested using a bromoKdELECT assay. T7 phage strains displaying bromodomains were grown in parallel in 24-well blocks in an E. coli host derived from the BL21 strain. E. coli were grown to log-phase and infected with T7 phage from a frozen stock (multiplicity of infection=0.4) and incubated with shaking at 32° C. until lysis (90-150 minutes). The lysates were centrifuged (5,000×g) and filtered (0.2 μm) to remove cell debris. Streptavidin-coated magnetic beads were treated with biotinylated small molecule or acetylated peptide ligands for 30 minutes at room temperature to generate affinity resins for bromodomain assays. The liganded beads were blocked with excess biotin and washed with blocking buffer (SeaBlock (Pierce), 1% BSA, 0.05% Tween 20, 1 mM DTT) to remove unbound ligand and to reduce nonspecific phage binding. Binding reactions were assembled by combining bromodomains, liganded affinity beads, and test compounds in 1×binding buffer (17% SeaBlock, 0.33×PBS, 0.04% Tween 20, 0.02% BSA, 0.004% Sodium azide, 7.4 mM DTT). Test compounds were prepared as 1000X stocks in 100% DMSO. Kds were determined using an 11-point 3-fold compound dilution series with one DMSO control point. All compounds for Kd measurements are distributed by acoustic transfer (non-contact dispensing) in 100% DMSO. The compounds were then diluted directly into the assays such that the final concentration of DMSO was 0.09%. All reactions performed in polypropylene 384-well plates. Each was a final volume of 0.02 ml. The assay plates were incubated at room temperature with shaking for 1 hour and the affinity beads were washed with wash buffer (1×PBS, 0.05% Tween 20). The beads were then resuspended in elution buffer (1×PBS, 0.05% Tween 20, 2 μM non-biotinylated affinity ligand) and incubated at room temperature with shaking for 30 minutes. The bromodomain concentration in the eluates was measured by qPCR.

BTK = BTK (Homo sapiens (Human), UniProt Q06187); test: KdELECT assay for binding affinity to BTK
In short: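 Competition binding of test compound against bead-immobilized biotinylated ligand; kinase as T7 phage fusion or HEK-293-expressed DNA-tagged protein. 11-point 3-fold dilution, 0.9% DMSO final, 1 h room temperature with shaking. Bound kinase eluted with 0.5 μM non-biotinylated ligand and quantified by qPCR; Kd derived.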

BRD4-BD1 = BRD4-BD1 (Homo sapiens (Human), UniProt O60885); test: bromoKdELECT assay for binding affinity to BRD4-BD1
Experimental: as §1

KIF11 = KIF11 (Homo sapiens (Human), UniProt P52732); test: Enzyme-coupled ATPase assay for inhibition of KIF11; type: biochemical; settings: KIF11 ATPase rate, 1 mM ATP
Experimental: The ATPase rate for Kif11 was monitored using an enzyme-coupled assay. Porcine brain microtubules (Cat #MT002) were purchased from Cytoskeleton (Denver, CO) and polymerized as per manufacturer's instructions and stored at 1 mg/ml at −80° C. GST-tagged Kif11/Eg5 (Cat #EG01-XL) and the Kinesin ELIPA Biochem Kit (Cat #BK060) was also purchased from Cytoskeleton. Taxol, microtubules, 7-methylthioguanosine (MESG), and purine nucleoside phosphorylase (PNP) were added to final concentrations of […], 0.05 mg/mL, […], 1U/m, 1 mM in EPLIA Reaction Buffer and allowed to incubate at room temperature for 15 minutes under rocking. Kif11 was then added at a final concentration of […] and allowed to incubate at room temperature for an additional 15 minutes. Master mix ([…]) was added to a black 384-well plate (Corning 3575), to which […] of DMSO or compound were added to appropriate wells. Plates were incubated at room temperature for 2 hours. ATPase reactions were initiated by addition of 1 mM ATP and monitored by OD340 every 1 minute over the course of 2 hours. The rate of the reaction was taken from the linear part of the resulting curve. IC50 was determined by plotting inhibitor concentration v. ATPase rate.

CDK1 = CDK1 (Homo sapiens (Human), UniProt P06493); test: KdELECT assay for binding affinity to CDK1
Experimental: Compounds were tested using a KdELECT assay. Kinase-tagged T7 phage strains were prepared in an E. coli host derived from the BL21 strain. E. coli were grown to log-phase and infected with T7 phage and incubated with shaking at 32° C. until lysis. The lysates were centrifuged and filtered to remove cell debris. The remaining kinases were produced in HEK-293 cells and subsequently tagged with DNA for qPCR detection. Streptavidin-coated magnetic beads were treated with biotinylated small molecule ligands for 30 minutes at room temperature to generate affinity resins for kinase assays. The liganded beads were blocked with excess biotin and washed with blocking buffer (SeaBlock (Pierce), 1% BSA, 0.05% Tween 20, 1 mM DTT) to remove unbound ligand and to reduce non-specific binding. Binding reactions were assembled by combining kinases, liganded affinity beads, and test compounds in 1×binding buffer (20% SeaBlock, 0.17×PBS, 0.05% Tween 20, 6 mM DTT). Test compounds were prepared as 111X stocks in 100% DMSO. Kd values were determined using an 11-point 3-fold compound dilution series with three DMSO control points. All compounds for Kd measurements are distributed by acoustic transfer (non-contact dispensing) in 100% DMSO. The compounds were then diluted directly into the assays such that the final concentration of DMSO was 0.9%. All reactions performed in polypropylene 384-well plate. Each was a final volume of 0.02 mL. The assay plates were incubated at room temperature with shaking for 1 hour and the affinity beads were washed with wash buffer (1×PBS, 0.05% Tween 20). The beads were then re-suspended in elution buffer (1×PBS, 0.05% Tween 20, 0.5 μM nonbiotinylated affinity ligand) and incubated at room temperature with shaking for 30 minutes. The kinase concentration in the eluates was measured by qPCR.

Sequence of CDK1 (P06493 whole entry): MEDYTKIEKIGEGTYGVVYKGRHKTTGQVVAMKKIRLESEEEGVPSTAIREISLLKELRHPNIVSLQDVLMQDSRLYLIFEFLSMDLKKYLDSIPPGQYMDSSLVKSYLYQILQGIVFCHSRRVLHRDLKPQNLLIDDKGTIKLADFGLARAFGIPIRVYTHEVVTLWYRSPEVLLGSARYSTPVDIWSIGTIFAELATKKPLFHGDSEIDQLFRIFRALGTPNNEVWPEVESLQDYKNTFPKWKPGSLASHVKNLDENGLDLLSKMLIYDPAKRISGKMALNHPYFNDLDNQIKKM
Sequence of BTK (Q06187 whole entry, the tested form may be a part): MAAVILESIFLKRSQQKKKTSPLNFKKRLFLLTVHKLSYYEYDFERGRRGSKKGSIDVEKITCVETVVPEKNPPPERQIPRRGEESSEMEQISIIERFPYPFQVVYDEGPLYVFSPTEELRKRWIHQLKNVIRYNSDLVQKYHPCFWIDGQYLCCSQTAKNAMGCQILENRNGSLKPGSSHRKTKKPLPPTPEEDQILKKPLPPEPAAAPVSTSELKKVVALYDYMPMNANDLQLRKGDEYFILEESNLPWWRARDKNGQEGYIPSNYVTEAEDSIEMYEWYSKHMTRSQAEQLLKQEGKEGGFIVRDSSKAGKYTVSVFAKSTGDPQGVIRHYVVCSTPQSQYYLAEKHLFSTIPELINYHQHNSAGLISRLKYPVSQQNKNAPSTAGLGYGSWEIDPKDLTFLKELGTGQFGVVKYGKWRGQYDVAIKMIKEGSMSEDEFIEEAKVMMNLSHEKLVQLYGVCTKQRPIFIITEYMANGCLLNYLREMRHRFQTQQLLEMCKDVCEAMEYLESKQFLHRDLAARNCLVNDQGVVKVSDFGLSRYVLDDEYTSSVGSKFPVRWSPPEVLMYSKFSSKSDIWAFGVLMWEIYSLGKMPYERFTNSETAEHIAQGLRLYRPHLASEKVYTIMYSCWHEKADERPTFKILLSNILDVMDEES
Sequence of KIF11 (P52732 1-368): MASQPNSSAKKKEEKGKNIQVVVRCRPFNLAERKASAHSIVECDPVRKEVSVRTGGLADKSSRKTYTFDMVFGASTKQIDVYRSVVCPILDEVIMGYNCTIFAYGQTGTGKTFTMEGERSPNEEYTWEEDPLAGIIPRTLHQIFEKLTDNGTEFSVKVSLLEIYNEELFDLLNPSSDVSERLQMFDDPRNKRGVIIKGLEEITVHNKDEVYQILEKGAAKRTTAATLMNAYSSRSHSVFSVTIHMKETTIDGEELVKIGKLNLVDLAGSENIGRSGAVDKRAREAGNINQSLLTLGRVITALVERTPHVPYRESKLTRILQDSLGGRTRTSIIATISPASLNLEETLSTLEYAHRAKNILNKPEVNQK

SMILES | Kd (BRD4-BD2) [nM] | Kd (BTK) [nM] | Kd (BRD4-BD1) [nM] | IC50 (KIF11) [nM] | Kd (CDK1) [nM]
Cc1sc2c(c1C)C(c1ccc(Cl)cc1)=N[C@@H](CC(=O)NCCOCCOC/C=C/C(=O)N1CCC[C@@H](n3nc(-c4ccc(Oc5ccccc5)cc4)c4c(N)ncnc43)C1)c1nnc(C)n1-2 [Compound I-24, N-[2-[2-[(E)-4-[(3R)-3-[4-amino-3-(4-phenoxyphenyl)pyrazolo[3,4-d]pyrimidin-1-yl]-1-piperidyl]-4-oxo-but-2-enoxy]ethoxy]ethyl]-2-[(9S)-7-(4-chlorophenyl)-4,5,13-trimethyl-3-thia-1,8,11,12-tetrazatricyclo[8.3.0.02.6]trideca-2 (6),4,7,10,12-pentaen-9-yl]acetamide] | < 50 | < 50 | 50 to 500 |  | 
CN(C/C=C/C(=O)N1CCC[C@@H](n2nc(-c3ccc(Oc4ccccc4)cc3)c3c(N)ncnc32)C1)CCOCCOCCOCCOCCOCCOCCOCCOCCON(C)C(=O)N1N=C(c2cc(F)ccc2F)SC1(CCCN)c1ccccc1 (stereo partly drawn) [Compound I-54] |  |  |  | < 50 | 
CCc1cnn2c(NCc3ccc(OCCOCCOCCOCCOCCN(C)C/C=C/C(=O)N4CCC[C@@H](n5nc(-c6ccc(Oc7ccccc7)cc6)c6c(N)ncnc65)C4)nc3)cc(N3CCCC[C@H]3CCO)nc12 [Compound I-43] |  | < 50 |  |  | > 2500
CN(OCCOCCOCCOCCOCCOCCOCCOCCOCCOC/C=C/C(=O)N1CCC[C@@H](n2nc(-c3ccc(Oc4ccccc4)cc3)c3c(N)ncnc32)C1)C(=O)N1N=C(c2cc(F)ccc2F)SC1(CCCN)c1ccccc1 (stereo partly drawn) [Compound I-53] |  | < 50 |  | 50 to 500 | 
CCc1cnn2c(NCc3ccc(OCCOCCOCCOCCOCCOCCOCCOCCOCCOC/C=C/C(=O)N4CCC[C@@H](n5nc(-c6ccc(Oc7ccccc7)cc6)c6c(N)ncnc65)C4)nc3)cc(N3CCCC[C@H]3CCO)nc12 [Compound I-47] |  |  |  |  | > 2500
Cc1sc2c(c1C)C(c1ccc(Cl)cc1)=N[C@@H](CC(=O)NCCCN1CCN(CCCN(C)C/C=C/C(=O)N3CCC[C@@H](n4nc(-c5ccc(Oc6ccccc6)cc5)c5c(N)ncnc54)C3)CC1)c1nnc(C)n1-2 [Compound I-29, N-[3-[4-[3-[[(E)-4-[(3R)-3-[4-amino-3-(4-phenoxyphenyl)pyrazolo[3,4-d]pyrimidin-1-yl]-1-piperidyl]-4-oxo-but-2-enyl]-methyl-amino]propyl]piperazin-1-yl]propyl]-2-[(9S)-7-(4-chlorophenyl)-4,5, 13-trimethyl-3-thia-1,8, 11,12-tetrazatricyclo[8.3.0.0^2,6]trideca-2 (6),4,7,10,12-pentaen-9-yl]acetamide] | < 50 | < 50 | < 50 |  | 
Cc1sc2c(c1C)C(c1ccc(Cl)cc1)=N[C@@H](CC(=O)NCCOCCOCCOc1ccc(C(=O)NC3C(C)(C)C(Oc4ccc(C#N)c(Cl)c4)C3(C)C)cc1)c1nnc(C)n1-2 (stereo partly drawn) [Compound I-32] | 50 to 500 |  | 500 to 2500 |  | 
CN(C/C=C/C(=O)N1CCC[C@@H](n2nc(-c3ccc(Oc4ccccc4)cc3)c3c(N)ncnc32)C1)CCOCCOCCOCCOCCOCCOCCON(C)C(=O)N1N=C(c2cc(F)ccc2F)SC1(CCCN)c1ccccc1 (stereo partly drawn) [Compound I-52] |  | < 50 |  | < 50 | 
CN(C/C=C/C(=O)N1CCC[C@@H](n2nc(-c3ccc(Oc4ccccc4)cc3)c3c(N)ncnc32)C1)CCOCCOCCOCCOCCON(C)C(=O)N1N=C(c2cc(F)ccc2F)SC1(CCCN)c1ccccc1 (stereo partly drawn) [Compound I-50] |  |  |  | < 50 | 
Cc1sc2c(c1C)C(c1ccc(Cl)cc1)=N[C@@H](CC(=O)NCCCCCCCC/C=C/C(=O)N1CCC[C@@H](n3nc(-c4ccc(Oc5ccccc5)cc4)c4c(N)ncnc43)C1)c1nnc(C)n1-2 [Compound I-28, N—[(E)-11-[(3R)-3-[4-amino-3-(4-phenoxyphenyl)pyrazolo[3,4-d]pyrimidin-1-yl]-1-piperidyl]-11-oxo-undec-9-enyl]-2-[(9S)-7-(4-chlorophenyl)-4,5,13-trimethyl-3-thia-1,8,11,12-tetrazatricyclo[8.3.0.0^2,6]trideca-2 (6),4,7,10,12-pentaen-9-yl]acetamide] | 500 to 2500 | 500 to 2500 | > 2500 |  | 

Continued, values first:

Kd (BRD4-BD2) [nM] | Kd (BTK) [nM] | Kd (BRD4-BD1) [nM] | IC50 (KIF11) [nM] | Kd (CDK1) [nM] | SMILES
 |  |  | 50 to 500 |  | CN(OCCOCCOCCOCCOCCOC/C=C/C(=O)N1CCC[C@@H](n2nc(-c3ccc(Oc4ccccc4)cc3)c3c(N)ncnc32)C1)C(=O)N1N=C(c2cc(F)ccc2F)SC1(CCCN)c1ccccc1 (stereo partly drawn) [Compound I-49]
 | < 50 |  |  | 50 to 500 | NC(=O)c1c(F)cccc1Nc1nc(Nc2ccc(S(=O)(=O)NCCOCCOCCOCCOCCOCCOC/C=C/C(=O)N3CCC[C@@H](n4nc(-c5ccc(Oc6ccccc6)cc5)c5c(N)ncnc54)C3)cc2)ncc1Br [Compound I-15]
 | < 50 |  |  | < 50 | CN(C/C=C/C(=O)N1CCC[C@@H](n2nc(-c3ccc(Oc4ccccc4)cc3)c3c(N)ncnc32)C1)CCCN1CCN(CCCNS(=O)(=O)c2ccc(Nc3ncc(Br)c(Nc4cccc(F)c4C(N)=O)n3)cc2)CC1 [Compound I-18, 2-[[2-[4-[3-[4-[3-[[(E)-4-[(3R)-3-[4-amino-3-(4-phenoxyphenyl)pyrazolo[3,4-d]pyrimidin-1-yl]-1-piperidyl]-4-oxo-but-2-enyl]-methyl-amino]propyl]piperazin-1-yl]propylsulfamoyl]anilino]-5-bromo-pyrimidin-4-yl]amino]-6-fluoro-benzamide]
< 50 | < 50 | 50 to 500 |  |  | Cc1sc2c(c1C)C(c1ccc(Cl)cc1)=N[C@@H](CC(=O)NCCOCCOCCOCCOCCOCCOC/C=C/C(=O)N1CCC[C@@H](n3nc(-c4ccc(Oc5ccccc5)cc4)c4c(N)ncnc43)C1)c1nnc(C)n1-2 [Compound I-26, N-[2-[2-[2-[2-[2-[2-[(E)-4-[(3R)-3-[4-amino-3-(4-phenoxyphenyl)pyrazolo[3,4-d]pyrimidin-1-yl]-1-piperidyl]-4-oxo-but-2-enoxy]ethoxy]ethoxy]ethoxy]ethoxy]ethoxy]ethyl]-2-[(9S)-7-(4-chlorophenyl)-4,5, 13-trimethyl-3-thia-1,8, 11,12-tetrazatricyclo[8.3.0.0^2,6]trideca-2 (6),4,7,10, 12-pentaen-9-yl]acetamide]
 | 50 to 500 |  |  | 500 to 2500 | NC(=O)c1c(F)cccc1Nc1nc(Nc2ccc(S(=O)(=O)NCCOCCOC/C=C/C(=O)N3CCC[C@@H](n4nc(-c5ccc(Oc6ccccc6)cc5)c5c(N)ncnc54)C3)cc2)ncc1Br [Compound I-13, 2-[[2-[4-[2-[2-[(E)-4-[(3R)-3-[4-amino-3-(4-phenoxyphenyl)pyrazolo[3,4-d]pyrimidin-1-yl]-1-piperidyl]-4-oxo-but-2-enoxy]ethoxy]ethylsulfamoyl]anilino]-5-bromo-pyrimidin-4-yl]amino]-6-fluoro-benzamide]
